The text below walks through data of US7829721B2, “Specific caspase-10 inhibitors” (Merck Patent GmbH, priority 2004, dated 2010).

One experiment concerns the target T1, caspase-10 (Homo sapiens, UniProt Q92851).
T1 sequence (Q92851 220-415 limits assumed): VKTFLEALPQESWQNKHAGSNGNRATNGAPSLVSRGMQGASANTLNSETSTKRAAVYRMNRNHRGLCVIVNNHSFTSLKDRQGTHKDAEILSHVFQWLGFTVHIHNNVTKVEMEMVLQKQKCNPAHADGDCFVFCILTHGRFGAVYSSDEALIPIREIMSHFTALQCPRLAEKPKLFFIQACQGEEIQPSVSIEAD
T1 sequence (Q92851 416-521 limits assumed): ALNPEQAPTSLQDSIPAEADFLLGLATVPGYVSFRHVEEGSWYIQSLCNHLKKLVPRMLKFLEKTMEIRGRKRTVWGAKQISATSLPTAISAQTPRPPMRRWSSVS
Description: Caspase inhibition, delayed-time fluorescence method (europium substrate Eu-W1284-CIETDK-QSy-7).

The target of a further experiment is T2, caspase 3 (Homo sapiens, UniProt P42574).
T2 sequence (P42574 29-175 limits assumed): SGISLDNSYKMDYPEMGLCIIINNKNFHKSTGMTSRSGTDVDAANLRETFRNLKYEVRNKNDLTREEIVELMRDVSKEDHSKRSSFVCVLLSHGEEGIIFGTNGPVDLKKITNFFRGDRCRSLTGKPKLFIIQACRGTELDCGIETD
T2 sequence (P42574 176-277 limits assumed): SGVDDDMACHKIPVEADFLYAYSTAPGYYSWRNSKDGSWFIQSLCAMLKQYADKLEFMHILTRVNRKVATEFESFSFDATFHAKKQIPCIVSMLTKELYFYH
Description: Caspase inhibition, delayed-time fluorescence method (europium substrate Eu-W1284-CDEVDK-QSy-7).

The target in the next experiment is T3, caspase 9 (Homo sapiens, UniProt P55211).
T3 sequence (P55211 1-315 limits assumed): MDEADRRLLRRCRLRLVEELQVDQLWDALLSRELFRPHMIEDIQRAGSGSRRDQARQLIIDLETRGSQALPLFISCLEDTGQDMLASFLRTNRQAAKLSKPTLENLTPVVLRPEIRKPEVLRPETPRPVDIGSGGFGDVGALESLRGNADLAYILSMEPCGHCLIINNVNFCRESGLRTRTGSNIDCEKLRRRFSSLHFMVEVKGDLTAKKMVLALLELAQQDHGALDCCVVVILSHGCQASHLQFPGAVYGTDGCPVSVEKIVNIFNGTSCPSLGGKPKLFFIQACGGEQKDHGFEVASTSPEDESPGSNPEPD
T3 sequence (P55211 331-416 limits assumed): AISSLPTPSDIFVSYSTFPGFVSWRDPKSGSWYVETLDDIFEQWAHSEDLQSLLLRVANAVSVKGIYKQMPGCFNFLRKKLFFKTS
Description: Caspase inhibition, delayed-time fluorescence method (europium substrate Eu-W1284-CLEHDK-QSy-7).

The target of the next experiment is T4, caspase 2 (Homo sapiens, UniProt P42575).
T4 sequence (P42575 170-325 limits assumed): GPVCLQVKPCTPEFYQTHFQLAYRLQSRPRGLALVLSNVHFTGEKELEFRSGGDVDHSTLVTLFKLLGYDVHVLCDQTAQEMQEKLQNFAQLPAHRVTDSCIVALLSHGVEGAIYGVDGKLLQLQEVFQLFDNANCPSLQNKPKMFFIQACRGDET
T4 sequence (P42575 348-452 limits assumed): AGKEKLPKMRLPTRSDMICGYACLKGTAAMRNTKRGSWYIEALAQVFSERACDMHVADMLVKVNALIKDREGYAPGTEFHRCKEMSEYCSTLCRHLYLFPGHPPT
Description: Caspase inhibition, delayed-time fluorescence method (europium substrate Eu-W1284-CDEVDK-QSy-7).

The next experiment deals with T5, caspase 6 (Homo sapiens, UniProt P55212).
T5 sequence (P55212 24-179 limits assumed): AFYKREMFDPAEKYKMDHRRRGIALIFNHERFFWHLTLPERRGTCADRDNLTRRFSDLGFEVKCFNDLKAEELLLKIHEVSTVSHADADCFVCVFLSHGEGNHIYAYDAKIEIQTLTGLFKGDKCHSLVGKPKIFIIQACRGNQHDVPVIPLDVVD
T5 sequence (P55212 194-293 limits assumed): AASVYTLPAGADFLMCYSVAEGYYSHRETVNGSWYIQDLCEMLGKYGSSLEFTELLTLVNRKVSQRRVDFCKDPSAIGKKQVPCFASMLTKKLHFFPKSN
The experiment is described as follows: Caspase inhibition, delayed-time fluorescence method (europium substrate Eu-W1284-CVEIDK-QSy-7).

For a further experiment, the target named is caspase 8 (Homo sapiens, UniProt Q14790). The experiment is described as follows: Caspase inhibition, delayed-time fluorescence method (europium substrate Eu-W1284-CIETDK-QSy-7).
Sequence of caspase 8 (Q14790 217-374 limits assumed): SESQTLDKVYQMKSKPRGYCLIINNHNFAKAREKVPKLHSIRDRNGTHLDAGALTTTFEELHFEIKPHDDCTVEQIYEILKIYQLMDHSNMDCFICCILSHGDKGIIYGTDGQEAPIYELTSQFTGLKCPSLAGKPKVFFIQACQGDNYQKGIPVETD
Sequence of caspase 8 (Q14790 385-479 limits assumed): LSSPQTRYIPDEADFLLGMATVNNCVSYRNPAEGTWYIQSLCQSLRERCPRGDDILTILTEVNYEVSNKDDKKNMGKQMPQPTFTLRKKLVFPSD
Another experiment concerns diabetic rats. The note with it: cited from earlier work.

The term IC50 denotes the concentration at which inhibition is half-maximal. Lower therefore signals higher potency.

Description for caspase 8: (§1) The substrate used is a tetrapeptide specific to this caspase, having at one of its ends a fluorescent europium marker (W1284) and at the other end a europium chelate fluorescence quencher (QSy-7): Eu-W1284-CIETDK-QSy-7.
(§2) The caspase cleaves the substrate, releasing the quencher. Thus, by excitation at 340 nm, the signal emitted by the fluorescence of the europium is read by WALLAC Victor^2 reader at 615 nm.
They are ready for use or can be divided into aliquots and stored at −80° C. […] 20 μl of this solution are distributed per well of the assay plate. […] The assay is performed with 1 U of enzyme per well, by distributing 20 μl of the diluted solution per well. • The standard inhibitors: The standard inhibitors are dissolved in DMSO to a concentration of 10 mM. They are tested at IC20 and at IC50 on the caspases they inhibit (see following table). The concentrations mentioned in the table are the final concentrations in the assay wells.
(§3) They are then distributed in the wells using this solution to reach the final concentration of IC20 or IC50, i.e. 3 μl in 33 μl of final reaction volume (dilution 1/11). Thus, the final concentration of DMSO in the well is 0.3% (v/v) final. […] An intermediate dilution (1/6.6) is pre-pared in DMSO by diluting 10 μl of the concentrated solution in 66 μl of DMSO (final volume). […] The inhibitors are then distributed in the wells to reach the final screening concentration (10 μM), i.e. 3 μl in 33 μl of final reaction volume (dilution 1/11) and a final concentration of DMSO of 0.3% (v/v) in the well.
The volumes and the protocol were optimised for automated use.
(§4) The incubation takes place for 3 hours 30 minutes at room temperature before reading the fluorescence in delayed time on the WALLAC Victor^2 reader with the filters corresponding to the fluorescence of europium (excitation filter: 340 nm, emission filter: 615 nm).
(§5) The inhibitors are diluted using solutions with concentrations of less than 20 mM in DMSO, and then prediluted in the caspase buffer.
Description for caspase-10: as §1, §2
20 μl of this solution are distributed per well of the assay plate. […] The assay is performed with 1 U of enzyme per well, by distributing 20 μl of the diluted solution per well. • The standard inhibitors: The standard inhibitors are dissolved in DMSO to a concentration of 10 mM.
as §3, §4, §5

As to `Cc1ccc(-c2ccc(Cl)cc2CC(=O)O)cc1` [Example 12, (4-chloro-4′-methylbiphenyl-2-yl)acetic acid], the IC50 is 13.1 µM against caspase-10; over 200 µM against caspase 3; over 200 µM against caspase 9; over 200 µM against caspase 2; over 200 µM against caspase 6; over 200 µM at caspase 8.
Consider `O=C(O)Cc1cc(Cl)ccc1-c1ccc(Cl)cc1` [Example 14, (4,4′-dichlorobiphenyl-2-yl)acetic acid], for which the IC50 on caspase-10 is 10.1 µM; against caspase 3, over 200 µM; on caspase 9, over 200 µM; at caspase 2 it was over 200 µM; against caspase 6 it was over 200 µM; at caspase 8 it was over 200 µM.
Consider `O=C(O)Cc1cc(Cl)ccc1-c1ccc(C(F)(F)F)cc1` [Example 15, [4-chloro-4′-(trifluoromethyl)biphenyl-2-yl]acetic acid], for which the IC50 at caspase-10 was 23.6 µM; at caspase 3, over 200 µM; on caspase 9, over 200 µM; against caspase 2, over 200 µM; at caspase 6, over 200 µM; against caspase 8 it was over 200 µM.
As to `COc1ccc(-c2ccc(Cl)cc2CC(=O)O)cc1` [Example 16, (4-chloro-4′-methoxybiphenyl-2-yl)acetic acid], the IC50 at caspase-10 was 9 µM; on caspase 3, over 200 µM; against caspase 9 it was over 200 µM; on caspase 2, over 200 µM; at caspase 6, over 200 µM; at caspase 8, over 200 µM.
Turning to `N=C(N)NN` [aminoguanidine], the “reduced formation of acellular capillaries” value in the experiment on diabetic rats (diabetic rats treated for 26 weeks) is listed as 80%.
Consider `Cc1ncc(CO)c(CN)c1O` [pyridoxamine], for which, in the experiment on diabetic rats (diabetic rats treated for 29 weeks, versus untreated rats), the “death of the pericytes” value is “prevents the death of the pericytes”.
